Experimental data taken from the supplement of paper PMC11061612.

Columns and labels:
Capivasertib = compound: C1CN(CCC1(C(=O)N[C@@H](CCO)C2=CC=C(C=C2)Cl)N)C3=NC=NC4=C3C=CN4 [Capivasertib]; conditions: max 10 µM
Method in brief: (§1)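 Viability was measured with CellTiter-Glo 2.0 luminescence after 72 hours of dosing at a final DMSO of typically 0.2%, and scaled between blank-well and DMSO-well means. Beforehand, cancer cell lines sat 24 hours at 37°C and 5% CO2 in 1536-well plates in 7.5 μl DMEM/F12 or RPMI with 10% FBS. A non-linear mixed effects model fitted two-parameter logistic curves to the dose responses. The single-agent IC50 comes from these fits.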

AZD1775 = compound: C=CCn1c(=O)c2cnc(Nc3ccc(N4CCN(C)CC4)cc3)nc2n1-c1cccc(C(C)(C)O)n1 [AZD1775]; conditions: max 3 µM
Method in brief: as §1

Trametinib = compound: CC(=O)Nc1cccc(-n2c(=O)n(C3CC3)c(=O)c3c(Nc4ccc(I)cc4F)n(C)c(=O)c(C)c32)c1 [Trametinib]; conditions: max 1 µM
Method in brief: as §1

Palbociclib = compound: CC(=O)c1c(C)c2cnc(Nc3ccc(N4CCNCC4)cn3)nc2n(C2CCCC2)c1=O [Palbociclib]; conditions: max 10 µM
Method in brief: as §1

AZD1390 = compound: CC(C)n1c(=O)n(C)c2cnc3cc(F)c(-c4ccc(OCCCN5CCCCC5)nc4)cc3c21 [AZD1390]; conditions: max 0.3 µM
Method in brief: as §1

Venetoclax = compound: CC1(C)CCC(CN2CCN(c3ccc(C(=O)NS(=O)(=O)c4ccc(NCC5CCOCC5)c([N+](=O)[O-])c4)c(Oc4cnc5[nH]ccc5c4)c3)CC2)=C(c2ccc(Cl)cc2)C1 [Venetoclax]; conditions: max 1 µM
Method in brief: as §1

Dasatinib = compound: CC1=C(C(=CC=C1)Cl)NC(=O)C2=CN=C(S2)NC3=CC(=NC(=N3)C)N4CCN(CC4)CCO [Dasatinib]; conditions: max 2 µM
Method in brief: as §1

SG3199 = compound: CC1=CN2[C@@H](C1)C=NC3=CC(=C(C=C3C2=O)OC)OCCCCCOC4=C(C=C5C(=C4)N=C[C@@H]6CC(=CN6C5=O)C)OC [SG3199]; conditions: max 0.001 µM
Method in brief: as §1

AZD2811 = compound: CCN(CCO)CCCOc1ccc2c(Nc3cc(CC(=O)Nc4cccc(F)c4)[nH]n3)ncnc2c1 [AZD2811]; conditions: max 1 µM
Method in brief: as §1

SN-38 = compound: CCc1c2c(nc3ccc(O)cc13)-c1cc3c(c(=O)n1C2)COC(=O)[C@]3(O)CC [SN-38]; conditions: max 0.3 µM
Method in brief: as §1

AZD0156 = compound: CN(C)CCCOc1ccc(-c2ccc3ncc4c(c3c2)n(C2CCOCC2)c(=O)n4C)cn1 [AZD0156]; conditions: max 3 µM
Method in brief: as §1

AZD4320 = compound: CN(CC[C@H](CSC1=CC=CC=C1)NC2=C(C=C(C=C2)S(=O)(=O)NC(=O)C3=CC=C(C=C3)N4CCC(CC4)[C@H](C5=CC=CC=C5C6=CC=C(C=C6)Cl)O)S(=O)(=O)C(F)(F)F)CCO [AZD4320]; conditions: max 1 µM
Method in brief: as §1

Alisertib = compound: COc1cc(Nc2ncc3c(n2)-c2ccc(Cl)cc2C(c2c(F)cccc2OC)=NC3)ccc1C(=O)O [Alisertib]; conditions: max 10 µM
Method in brief: as §1

Gefitinib = compound: COc1cc2ncnc(Nc3ccc(F)c(Cl)c3)c2cc1OCCCN1CCOCC1 [Gefitinib]; conditions: max 10 µM
Method in brief: as §1

Prexasertib = compound: COc1cccc(OCCCN)c1-c1cc(Nc2cnc(C#N)cn2)n[nH]1 [Prexasertib]; conditions: max 1 µM
Method in brief: as §1

Doxorubicin = compound: COc1cccc2c1C(=O)c1c(O)c3c(c(O)c1C2=O)C[C@@](O)(C(=O)CO)C[C@@H]3O[C@H]1C[C@H](N)[C@H](O)[C@H](C)O1 [Doxorubicin]; conditions: max 1 µM
Method in brief: as §1

AZD5153 = compound: COc1nnc2ccc(N3CCC(c4ccc(OCCN5CCN(C)C(=O)[C@H]5C)cc4)CC3)nn12 [AZD5153]; conditions: max 1 µM
Method in brief: as §1

Lapatinib = compound: CS(=O)(=O)CCNCc1ccc(-c2ccc3ncnc(Nc4ccc(OCc5cccc(F)c5)c(Cl)c4)c3c2)o1 [Lapatinib]; conditions: max 10 µM
Method in brief: as §1

AZD8186 = compound: C[C@@H](Nc1cc(F)cc(F)c1)c1cc(C(=O)N(C)C)cc2c(=O)cc(N3CCOCC3)oc12 [AZD8186]; conditions: max 3 µM
Method in brief: as §1

Crizotinib = compound: C[C@@H](Oc1cc(-c2cnn(C3CCNCC3)c2)cnc1N)c1c(Cl)ccc(F)c1Cl [Crizotinib]; conditions: max 10 µM
Method in brief: as §1

Savolitinib = compound: C[C@@H](c1ccc2nccn2c1)n1nnc2ncc(-c3cnn(C)c3)nc21 [Savolitinib]; conditions: max 1 µM
Method in brief: as §1

AZD6738 = compound: C[C@@H]1COCCN1C2=NC(=NC(=C2)C3(CC3)[S@](=N)(=O)C)C4=C5C=CNC5=NC=C4 [AZD6738]; conditions: max 10 µM
Method in brief: as §1

AZD5991 = compound: Cc1c2c(nn1C)CSCc1cc(n(C)n1)CSc1cc(c3ccccc3c1)OCCCc1c(C(=O)O)n(C)c3c-2c(Cl)ccc13 [AZD5991]; conditions: max 1 µM
Method in brief: as §1

AZD7648 = compound: Cc1cc2ncnn2cc1Nc1ncc2c(n1)n(C1CCOCC1)c(=O)n2C [AZD7648]; conditions: max 10 µM
Method in brief: as §1

Taselisib = compound: Cc1nc(-c2cn3c(n2)-c2ccc(-c4cnn(C(C)(C)C(N)=O)c4)cc2OCC3)n(C(C)C)n1 [Taselisib]; conditions: max 10 µM
Method in brief: as §1

Selumetinib = compound: Cn1cnc2c(F)c(Nc3ccc(Br)cc3Cl)c(C(=O)NOCCO)cc21 [Selumetinib]; conditions: max 10 µM
Method in brief: as §1

Olaparib = compound: O=C(c1cc(Cc2n[nH]c(=O)c3ccccc23)ccc1F)N1CCN(C(=O)C2CC2)CC1 [Olaparib]; conditions: max 10 µM
Method in brief: as §1

Cell Line: AM-38 (Glioblastoma)
- IC50, cell viability 72 h (Capivasertib): > 10 µM
- IC50, cell viability 72 h (AZD1775): 2.61 µM
- IC50, cell viability 72 h (Trametinib): 0.0717 µM
- IC50, cell viability 72 h (Palbociclib): > 10 µM
- IC50, cell viability 72 h (AZD1390): > 0.3 µM
- IC50, cell viability 72 h (Venetoclax): > 1 µM
- IC50, cell viability 72 h (Dasatinib): > 2 µM
- IC50, cell viability 72 h (SG3199): > 0.001 µM
- IC50, cell viability 72 h (AZD2811): > 1 µM
- IC50, cell viability 72 h (SN-38): 0.0227 µM
- IC50, cell viability 72 h (AZD0156): > 3 µM
- IC50, cell viability 72 h (AZD4320): > 1 µM
- IC50, cell viability 72 h (Alisertib): > 10 µM
- IC50, cell viability 72 h (Gefitinib): > 10 µM
- IC50, cell viability 72 h (Prexasertib): 0.126 µM
- IC50, cell viability 72 h (Doxorubicin): 0.694 µM
- IC50, cell viability 72 h (AZD5153): > 1 µM
- IC50, cell viability 72 h (Lapatinib): > 10 µM
- IC50, cell viability 72 h (AZD8186): > 3 µM
- IC50, cell viability 72 h (Crizotinib): > 10 µM
- IC50, cell viability 72 h (Savolitinib): > 1 µM
- IC50, cell viability 72 h (AZD6738): 4.8 µM
- IC50, cell viability 72 h (AZD5991): > 1 µM
- IC50, cell viability 72 h (AZD7648): > 10 µM
- IC50, cell viability 72 h (Taselisib): > 10 µM
- IC50, cell viability 72 h (Selumetinib): 3.75 µM
- IC50, cell viability 72 h (Olaparib): > 10 µM

Cell Line: BHT-101 (Thyroid Gland Carcinoma)
- IC50, cell viability 72 h (Capivasertib): > 10 µM
- IC50, cell viability 72 h (AZD1775): > 3 µM
- IC50, cell viability 72 h (Trametinib): 0.0182 µM
- IC50, cell viability 72 h (Palbociclib): 9.12 µM
- IC50, cell viability 72 h (AZD1390): > 0.3 µM
- IC50, cell viability 72 h (Venetoclax): > 1 µM
- IC50, cell viability 72 h (Dasatinib): 1.1 µM
- IC50, cell viability 72 h (SG3199): > 0.001 µM
- IC50, cell viability 72 h (AZD2811): > 1 µM
- IC50, cell viability 72 h (SN-38): 0.0309 µM
- IC50, cell viability 72 h (AZD0156): > 3 µM
- IC50, cell viability 72 h (AZD4320): > 1 µM
- IC50, cell viability 72 h (Alisertib): 1.85 µM
- IC50, cell viability 72 h (Gefitinib): > 10 µM
- IC50, cell viability 72 h (Prexasertib): 0.293 µM
- IC50, cell viability 72 h (Doxorubicin): > 1 µM
- IC50, cell viability 72 h (AZD5153): 0.0601 µM
- IC50, cell viability 72 h (Lapatinib): > 10 µM
- IC50, cell viability 72 h (AZD8186): > 3 µM
- IC50, cell viability 72 h (Crizotinib): 8.67 µM
- IC50, cell viability 72 h (Savolitinib): > 1 µM
- IC50, cell viability 72 h (AZD6738): 9.26 µM
- IC50, cell viability 72 h (AZD5991): > 1 µM
- IC50, cell viability 72 h (AZD7648): > 10 µM
- IC50, cell viability 72 h (Taselisib): 6.45 µM
- IC50, cell viability 72 h (Selumetinib): 1.36 µM
- IC50, cell viability 72 h (Olaparib): > 10 µM
